This is an account of results in patent US4851450A, “Compounds for inhibition of platelet activating factor activity” (priority 1987, dated 1989).

Data set [1] relates to PAF aggregation of washed rabbit platelets. In words: Inhibition of PAF (AGEPC) activity / disaggregation during AGEPC-induced aggregation of washed rabbit platelets. The class given is cell-based. Particulars: for IC50: Oryctolagus cuniculus, Platelet.
Data set [2] has as its system rats. In words: Systolic blood pressure in rats (procedure of Tselepis et al.). The format is in vivo, rat. The text has this:
Biochem. Physiol. 87C(1),41-46 (1987), the teachings of which are incorporated herein.

In data set [3] the test system is Tetrahymena pyriformis cells. In words: Glycogenolysis in intact Tetrahymena pyriformis cells. The class given is cell-based. The conditions noted are these: glucose measured, FIG. 3. On the procedure: The results were obtained using the following procedure: Tetrahymena pyriformis cells, in log phase, are spun down, washed with saline and resuspended in Tyrodes solution. After 30 min of incubation, the compounds III and IV in bovine serum albumin solution are added and aliquots taken at different time intervals. The aliquots are treated for 2 min in boiled water, sonicated and glucose measured by the method of Bergmeyer et al. (Methods of Enzymatic Analysis, 3, 1196 (Academic Press, N.Y. 1974), the teachings of which are incorporated herein.

Data set [4] deals with rabbit platelets. Description: [3H]Serotonin secretion by platelets. Particulars: Oryctolagus cuniculus, Platelet; 2 min; final concentrations; read-out: 50% secretion of 3H-serotonin at 2 min. The class given is cell-based. On the procedure:
The procedure is as follows: PAF and the various test lipid compounds are assessed for platelet stimulatory activity as briefly described. Rabbit platelets, internally labeled with [^3 H]serotonin (New England Nuclear; 28.2 Ci/mmol) are washed on Ficoll-Paque cushions and adjusted to 2.5×10^8 platelets/ml of Tyrode's buffer, pH 7.2. Appropriate dilutions of PAF or the test lipids are prepared in pyrogen-free 0.15M NaCl containing 2.5 mg/ml of crystallized bovine serum albumin; the albumin is required for dispersion of PAF and the test lipids. Four microliters of the various dilutions of PAF and test lipids are added to 200 μl of prewarmed (37° C.) [^3 H]serotonin-labeled platelets in plastic test tubes and the reaction mixture was incubated for 60 s at which time 20 μl of cold 1.5 m formaldehyde were added to stop the reactions. The tubes were immediately cooled to 0° C., centrifuged at 2200×g for 10 min and the supernatants were assayed for percentage of [^3 H]serotonin secretion relative to 100% controls prepared by the addition of Triton X-100 to 200 μl of the starting platelet suspension. The data were plotted linearly and 1 unit of activity was defined as the amount of PAF or test lipids required to effect 50% serotonin release. […]

In data set [5] the test system is washed rabbit platelets. In words: Aggregation of washed rabbit platelets (procedure of Demopoulos et al.). Particulars: for EC50: Oryctolagus cuniculus, Platelet, final concentrations; for cytotoxicity of the aggregation: washed rabbit platelets. The class given is cell-based.
[6] abbreviates: Table, final molar concentration, for 2 × 10^-10 M AGEPC, read-out: IC50.
Where [7] appears, read: against 2×10^-10 M PAF, final concentrations, read-out: IC50 for 2×10^-10 M PAF.

Where two headings read alike, the source gives them in different places.

thrombin: in data set [1] (added during AGEPC (PAF)-induced aggregation, FIG. 4), the “effect on aggregation when added during AGEPC-induced aggregation” value is on record as “no effect on platelet aggregation”.

As to “1-O-alkyl-2-acetyl-sn-glyceryl-3-phosphorylcholine [PAF]”, the “fall in systolic blood pressure (SBP)” value in data set [2] is “fall in the systolic blood pressure”. The glycogenolysis entry in data set [3] is “dramatic influence on glycogenolysis”.

On to `CCCCCCCCC(O)C(O)CCCCCCCCOCC(O)CO` (stereo not shown) [Compound III, 9,10-Dihydroxy-Octadecyl Glycerol], for which the EC50 came out at 2 µM in data set [4] and 0.2 µM in data set [5]. In data set [5], the “cytotoxicity of the aggregation” value was “non-cytotoxic”. Moreover, the IC50 in data set [1] (setting [6]) and in data set [1] (setting [7]) was 16 µM each time.

Take `CCCCCCCCC(OC(C)=O)C(CCCCCCCCOCC(COC(C)=O)OC(C)=O)OC(C)=O` (stereo not shown) [Compound IV, Tetra-Acetyl-9,10-Dihydroxy-Octadecyl Glycerol]: the EC50 in data set [4] worked out at 9 µM; in data set [5], 2 µM. The “cytotoxicity of the aggregation” value in data set [5] is “non-cytotoxic”. Moreover, the IC50 in data set [1] (setting [6]) and in data set [1] (setting [7]) was 28 µM in each case.

Usually IC50 stands for the point on the concentration scale where inhibition reaches its midpoint.
